Experimental data reported in PubChem BioAssay (NCI).
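Following 48 hours of exposure in 96-well plates, responses at five concentrations were used to interpolate endpoints linearly. GI50: concentration for 50% inhibition of growth. TGI marks complete inhibition of growth.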

Experiments:
Assay in all cases: inhibition of tumour cell growth, NCI panel, 48 h
SK-MEL-2 melanoma = tested on: SK-MEL-2 melanoma
HOP-92 NSCLC = tested on: HOP-92 NSCLC
DU-145 prostate = tested on: DU-145 prostate
COLO 205 colon = tested on: COLO 205 colon
SNB-19 CNS = tested on: SNB-19 CNS
MDA-MB-231 breast = tested on: MDA-MB-231 breast
K-562 leukemia = tested on: K-562 leukemia
EKVX NSCLC = tested on: EKVX NSCLC
IGROV1 ovarian = tested on: IGROV1 ovarian
OVCAR-8 ovarian = tested on: OVCAR-8 ovarian
UACC-257 melanoma = tested on: UACC-257 melanoma
HS 578T breast = tested on: HS 578T breast
TK-10 renal = tested on: TK-10 renal
NCI-H226 lung = tested on: NCI-H226 lung
OVCAR-4 ovarian = tested on: OVCAR-4 ovarian
RPMI-8226 leukemia = tested on: RPMI-8226 leukemia
HCC-2998 colon = tested on: HCC-2998 colon
SR leukemia = tested on: SR leukemia
MCF7 breast = tested on: MCF7 breast
MALME-3M melanoma = tested on: MALME-3M melanoma
CCRF-CEM leukemia = tested on: CCRF-CEM leukemia
HCT-15 colon = tested on: HCT-15 colon
NCI-H23 lung = tested on: NCI-H23 lung
SK-OV-3 ovarian = tested on: SK-OV-3 ovarian
LOX IMVI melanoma = tested on: LOX IMVI melanoma
NCI-H460 lung = tested on: NCI-H460 lung
HOP-62 NSCLC = tested on: HOP-62 NSCLC
RXF 393 renal = tested on: RXF 393 renal
OVCAR-3 ovarian = tested on: OVCAR-3 ovarian
NCI-H522 lung = tested on: NCI-H522 lung
HT29 colon = tested on: HT29 colon
SW-620 colon = tested on: SW-620 colon
SN12C renal = tested on: SN12C renal
T-47D breast = tested on: T-47D breast
A498 renal = tested on: A498 renal
HCT-116 colon = tested on: HCT-116 colon
UACC-62 melanoma = tested on: UACC-62 melanoma
MOLT-4 leukemia = tested on: MOLT-4 leukemia
SK-MEL-5 melanoma = tested on: SK-MEL-5 melanoma
786-0 renal = tested on: 786-0 renal
BT-549 breast = tested on: BT-549 breast
PC-3 prostate = tested on: PC-3 prostate
SF-295 CNS = tested on: SF-295 CNS
KM12 colon = tested on: KM12 colon
MDA-MB-435 = tested on: MDA-MB-435
SF-539 CNS = tested on: SF-539 CNS
ACHN renal = tested on: ACHN renal
SF-268 CNS = tested on: SF-268 CNS
UO-31 renal = tested on: UO-31 renal
M14 melanoma = tested on: M14 melanoma
SK-MEL-28 melanoma = tested on: SK-MEL-28 melanoma
NCI/ADR-RES ovarian = tested on: NCI/ADR-RES ovarian
CAKI-1 renal = tested on: CAKI-1 renal
HL-60(TB) leukemia = tested on: HL-60(TB) leukemia
U251 CNS = tested on: U251 CNS
OVCAR-5 ovarian = tested on: OVCAR-5 ovarian

Compound: CC1(C)CC[C@]2(C(=O)NCCNCCN)CC[C@]3(C)C(=CC[C@@H]4[C@@]5(C)CCC(=O)C(C)(C)[C@@H]5CC[C@]43C)[C@@H]2C1
- GI50 (SK-MEL-2 melanoma): 1.94 µM
- TGI (SK-MEL-2 melanoma): 4.05 µM
- GI50 (HOP-92 NSCLC): 1.47 µM
- TGI (HOP-92 NSCLC): 4.4 µM
- GI50 (DU-145 prostate): 1.85 µM
- TGI (DU-145 prostate): 3.41 µM
- GI50 (COLO 205 colon): 2.06 µM
- TGI (COLO 205 colon): 4.18 µM
- GI50 (SNB-19 CNS): 1.73 µM
- TGI (SNB-19 CNS): 3.23 µM
- GI50 (MDA-MB-231 breast): 1.82 µM
- TGI (MDA-MB-231 breast): 3.35 µM
- GI50 (K-562 leukemia): 2.74 µM
- TGI (K-562 leukemia): > 100 µM
- GI50 (EKVX NSCLC): 1.74 µM
- TGI (EKVX NSCLC): 3.67 µM
- GI50 (IGROV1 ovarian): 1.69 µM
- TGI (IGROV1 ovarian): 3.11 µM
- GI50 (OVCAR-8 ovarian): 2.15 µM
- TGI (OVCAR-8 ovarian): 4.9 µM
- GI50 (UACC-257 melanoma): 1.86 µM
- TGI (UACC-257 melanoma): 3.85 µM
- GI50 (HS 578T breast): 1.92 µM
- TGI (HS 578T breast): 4.17 µM
- GI50 (TK-10 renal): 1.91 µM
- TGI (TK-10 renal): 4.1 µM
- GI50 (NCI-H226 lung): 11 µM
- TGI (NCI-H226 lung): 36.1 µM
- GI50 (OVCAR-4 ovarian): 1.89 µM
- TGI (OVCAR-4 ovarian): 3.66 µM
- GI50 (RPMI-8226 leukemia): 2.44 µM
- TGI (RPMI-8226 leukemia): 6.26 µM
- GI50 (HCC-2998 colon): 1.73 µM
- TGI (HCC-2998 colon): 3.18 µM
- GI50 (SR leukemia): 1.7 µM
- TGI (SR leukemia): 4.76 µM
- GI50 (MCF7 breast): 1.55 µM
- TGI (MCF7 breast): 3.08 µM
- GI50 (MALME-3M melanoma): 1.83 µM
- TGI (MALME-3M melanoma): 3.43 µM
- GI50 (CCRF-CEM leukemia): 2.51 µM
- TGI (CCRF-CEM leukemia): 8.64 µM
- GI50 (HCT-15 colon): 1.79 µM
- TGI (HCT-15 colon): 3.29 µM
- GI50 (NCI-H23 lung): 1.9 µM
- TGI (NCI-H23 lung): 3.71 µM
- GI50 (SK-OV-3 ovarian): 2.56 µM
- TGI (SK-OV-3 ovarian): 6.09 µM
- GI50 (LOX IMVI melanoma): 1.81 µM
- TGI (LOX IMVI melanoma): 3.26 µM
- GI50 (NCI-H460 lung): 1.86 µM
- TGI (NCI-H460 lung): 3.51 µM
- GI50 (HOP-62 NSCLC): 2.05 µM
- TGI (HOP-62 NSCLC): 4.13 µM
- GI50 (RXF 393 renal): 1.57 µM
- TGI (RXF 393 renal): 2.93 µM
- GI50 (OVCAR-3 ovarian): 1.85 µM
- TGI (OVCAR-3 ovarian): 3.29 µM
- GI50 (NCI-H522 lung): 1.78 µM
- TGI (NCI-H522 lung): 3.91 µM
- GI50 (HT29 colon): 1.96 µM
- TGI (HT29 colon): 4.43 µM
- GI50 (SW-620 colon): 1.8 µM
- TGI (SW-620 colon): 3.56 µM
- GI50 (SN12C renal): 1.68 µM
- TGI (SN12C renal): 3.13 µM
- GI50 (T-47D breast): 1.88 µM
- TGI (T-47D breast): 3.95 µM
- GI50 (A498 renal): 8.01 µM
- TGI (A498 renal): 23.6 µM
- GI50 (HCT-116 colon): 1.75 µM
- TGI (HCT-116 colon): 3.21 µM
- GI50 (UACC-62 melanoma): 1.69 µM
- TGI (UACC-62 melanoma): 3.14 µM
- GI50 (MOLT-4 leukemia): 2.44 µM
- TGI (MOLT-4 leukemia): 6.15 µM
- GI50 (SK-MEL-5 melanoma): 1.8 µM
- TGI (SK-MEL-5 melanoma): 3.22 µM
- GI50 (786-0 renal): 1.71 µM
- TGI (786-0 renal): 3.09 µM
- GI50 (BT-549 breast): 1.56 µM
- TGI (BT-549 breast): 3.26 µM
- GI50 (PC-3 prostate): 1.82 µM
- TGI (PC-3 prostate): 3.61 µM
- GI50 (SF-295 CNS): 1.83 µM
- TGI (SF-295 CNS): 3.39 µM
- GI50 (KM12 colon): 1.85 µM
- TGI (KM12 colon): 3.4 µM
- GI50 (MDA-MB-435): 1.75 µM
- TGI (MDA-MB-435): 3.19 µM
- GI50 (SF-539 CNS): 1.72 µM
- TGI (SF-539 CNS): 3.11 µM
- GI50 (ACHN renal): 1.77 µM
- TGI (ACHN renal): 3.2 µM
- GI50 (SF-268 CNS): 1.89 µM
- TGI (SF-268 CNS): 4.06 µM
- GI50 (UO-31 renal): 1.65 µM
- TGI (UO-31 renal): 3.06 µM
- GI50 (M14 melanoma): 1.87 µM
- TGI (M14 melanoma): 3.5 µM
- GI50 (SK-MEL-28 melanoma): 1.75 µM
- TGI (SK-MEL-28 melanoma): 3.2 µM
- GI50 (NCI/ADR-RES ovarian): 7.81 µM
- TGI (NCI/ADR-RES ovarian): 22.7 µM
- GI50 (CAKI-1 renal): 1.82 µM
- TGI (CAKI-1 renal): 4.47 µM
- GI50 (HL-60(TB) leukemia): 2.07 µM
- TGI (HL-60(TB) leukemia): 4.71 µM
- GI50 (U251 CNS): 1.79 µM
- TGI (U251 CNS): 3.46 µM
- GI50 (OVCAR-5 ovarian): 1.98 µM
- TGI (OVCAR-5 ovarian): 4.56 µM
